Biological target: T1, FimH-CRD (Escherichia coli, UniProt P08191)
T1 construct: The first 177 amino acids of the FimH protein; thrombin tag (printed as 'fusion protein with thrombin') (cleaved yes); made in house; host or cells: bacteria (pET21b plasmid)
Test: Competitive binding assay by fluorescence polarization, assay 2 (compounds prepared by robotics, plates frozen and thawed)
Outline: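 Fluorescence-polarization competition of 5 nM Alexa 647 mannoside probe with 60 nM FimH-CRD (first 177 residues, tag removed) in Tris-Cl pH 7.0, NaCl, EDTA, β-ME, BSA, 2.5% DMSO, 5 h at RT in the dark. Twelve-point 3-fold titrations (0.4 nM–75 μM) in duplicate; Kd interpolated from displacement curves.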

T1 sequence (P08191 22-177): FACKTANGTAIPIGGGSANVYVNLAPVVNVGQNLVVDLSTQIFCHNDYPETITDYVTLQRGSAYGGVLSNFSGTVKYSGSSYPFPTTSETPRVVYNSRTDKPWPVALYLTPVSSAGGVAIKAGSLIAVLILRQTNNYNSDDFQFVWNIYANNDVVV

SMILES: CNC(=O)c1ccc2[nH]c(-c3cccc([C@H]4O[C@H](CO)[C@@H](O)[C@H](O)[C@@H]4O)c3)nc2c1 [Compound 172, N-methyl-2-(3-((2R,3S,4R,5S,6R)-3,4,5-trihydroxy-6-(hydroxymethyl)tetrahydro-2H-pyran-2-yl)phenyl)-1H-benzo[d]imidazole-5-carboxamide]
- Kd: 530 ± 714 nM

SMILES: CNC(=O)c1cccc2[nH]c(-c3cccc([C@H]4O[C@H](CO)[C@@H](O)[C@H](O)[C@@H]4O)c3)nc12 [Compound 173, N-methyl-2-(3-((2R,3S,4R,5S,6R)-3,4,5-trihydroxy-6-(hydroxymethyl)tetrahydro-2H-pyran-2-yl)phenyl)-1H-benzo[d]imidazole-4-carboxamide]
- Kd: 54.6 ± 23 nM

SMILES: OC[C@H]1O[C@H](c2cccc(-c3ccc(-c4cccnc4)cc3)c2)[C@@H](O)[C@@H](O)[C@@H]1O [Compound 174]
- Kd: 13.6 ± 3.4 nM

SMILES: Cc1nc(-c2ccc(-c3cccc([C@H]4O[C@H](CO)[C@@H](O)[C@H](O)[C@@H]4O)c3)cc2)no1 [Compound 175]
- Kd: 10.2 ± 0.04 nM

SMILES: Cc1nnc(-c2ccc(-c3cccc([C@H]4O[C@H](CO)[C@@H](O)[C@H](O)[C@@H]4O)c3)cc2)s1 [Compound 176]
- Kd: 21.1 ± 2.6 nM

SMILES: Cc1nc(-c2ccc(-c3cccc([C@H]4O[C@H](CO)[C@@H](O)[C@H](O)[C@@H]4O)c3)cc2)cs1 [Compound 177]
- Kd: 12.1 ± 5.8 nM

SMILES: OC[C@H]1O[C@H](c2cccc(-c3ccc(-c4nnco4)cc3)c2)[C@@H](O)[C@@H](O)[C@@H]1O [Compound 178]
- Kd: 17.9 ± 3.7 nM

SMILES: Cn1cnc2cc(-c3cccc([C@H]4O[C@H](CO)[C@@H](O)[C@H](O)[C@@H]4O)c3)ccc21 [Compound 179, (2R,3S,4R,5S,6R)-2-(hydroxymethyl)-6-(3-(1-methyl-1H-benzo[d]imidazol-5-yl)phenyl)tetrahydro-2H-pyran-3,4,5-triol]
- Kd: 20.4 ± 0.8 nM

SMILES: CNC(=O)Cc1nnc(-c2ccc(-c3cccc([C@H]4O[C@H](CO)[C@@H](O)[C@H](O)[C@@H]4O)c3)cc2)o1 [Compound 181, N-methyl-2-(5-(3′-((2R,3S,4R,5S,6R)-3,4,5-trihydroxy-6-(hydroxymethyl)tetrahydro-2H-pyran-2-yl)-[1,1′-biphenyl]-4-yl)-1,3,4-oxadiazol-2-yl)acetamide]
- Kd: 21.7 ± 4.2 nM

SMILES: COCCOCCNC(=O)Cc1nnc(-c2ccc(-c3cccc([C@H]4O[C@H](CO)[C@@H](O)[C@H](O)[C@@H]4O)c3)cc2)o1 [Compound 182, N-(2-(2-methoxyethoxy)ethyl)-2-(5-(3′-((2R,3S,4R,5S,6R)-3,4,5-trihydroxy-6-(hydroxymethyl)tetrahydro-2H-pyran-2-yl)-[1,1′-biphenyl]-4-yl)-1,3,4-oxadiazol-2-yl)acetamide]
- Kd: 20.2 ± 4.7 nM

SMILES: Cc1nnc(-c2ccc(-c3cccc([C@H]4O[C@H](CO)[C@@H](O)[C@H](O)[C@@H]4O)c3)nc2)o1 [Compound 183, (2R,3S,4R,5S,6R)-2-(hydroxymethyl)-6-(3-(5-(5-methyl-1,3,4-oxadiazol-2-yl)pyridin-2-yl)phenyl)tetrahydro-2H-pyran-3,4,5-triol]
- Kd: 24.8 ± 8.3 nM

SMILES: CC(=O)c1ccc(-c2cccc([C@H]3O[C@H](CO)[C@@H](O)[C@H](O)[C@@H]3O)c2)cc1 [Compound 184, 1-(3′-((2R,3S,4R,5S,6R)-3,4,5-trihydroxy-6-(hydroxymethyl)tetrahydro-2H-pyran-2-yl)-[1,1′-biphenyl]-4-yl)ethanone]
- Kd: 18.2 ± 8.4 nM

SMILES: N#Cc1ccc(Oc2cccc([C@H]3O[C@H](CO)[C@@H](O)[C@H](O)[C@@H]3O)c2)cc1 [Compound 185, 4-[3-[(2R,3S,4R,5S,6R)-3,4,5-trihydroxy-6-(hydroxymethyl)tetrahydropyran-2-yl]phenoxy]benzonitrile]
- Kd: 11.7 ± 7.5 nM

SMILES: CC(=O)c1ccc(Oc2cccc([C@H]3O[C@H](CO)[C@@H](O)[C@H](O)[C@@H]3O)c2)cc1 [Compound 186, 1-[4-[3-[(2R,3S,4R,5S,6R)-3,4,5-trihydroxy-6-(hydroxymethyl)tetrahydropyran-2-yl]phenoxy]phenyl]ethanone]
- Kd: 12.3 ± 8.9 nM

SMILES: CNC(=O)c1ccc(Oc2cc([C@H]3O[C@H](CO)[C@@H](O)[C@H](O)[C@@H]3O)ccc2OC)cc1 [Compound 187, 4-[2-methoxy-5-[(2R,3S,4R,5S,6R)-3,4,5-trihydroxy-6-(hydroxymethyl)tetrahydropyran-2-yl]phenoxy]-N-methyl-benzamide]
- Kd: 9.9 ± 1.9 nM

SMILES: CNC(=O)c1cccc(Oc2cc([C@H]3O[C@H](CO)[C@@H](O)[C@H](O)[C@@H]3O)ccc2OC)c1 [Compound 188, 3-[2-methoxy-5-[(2R,3S,4R,5S,6R)-3,4,5-trihydroxy-6-(hydroxymethyl)tetrahydropyran-2-yl]phenoxy]-N-methyl-benzamide]
- Kd: 11.1 ± 1.1 nM

SMILES: COC(=O)c1ccc(Oc2cc([C@H]3O[C@H](CO)[C@@H](O)[C@H](O)[C@@H]3O)ccc2OC)cc1 [Compound 189, Methyl-4-[2-methoxy-5-[(2R,3S,4R,5S,6R)-3,4,5-trihydroxy-6-(hydroxymethyl)tetrahydropyran-2-yl]phenoxy]benzoate]
- Kd: 8.1 ± 2.7 nM

SMILES: OC[C@H]1O[C@H](c2cccc(O)c2F)[C@@H](O)[C@@H](O)[C@@H]1O [Compound 190, (2R,3S,4R,5S,6R)-2-(2-fluoro-3-hydroxy-phenyl)-6-(hydroxymethyl)tetrahydropyran-3,4,5-triol]
- Kd: 24.1 ± 15.3 nM

SMILES: OC[C@H]1O[C@H](c2cc(O)ccc2OC(F)(F)F)[C@@H](O)[C@@H](O)[C@@H]1O [Compound 191, (2R,3S,4R,5S,6R)-2-(hydroxymethyl)-6-[5-hydroxy-2-(trifluoromethoxy)phenyl]tetrahydropyran-3,4,5-triol]
- Kd: 37.4 ± 17.2 nM

SMILES: OC[C@H]1O[C@H](c2cc(O)ccc2F)[C@@H](O)[C@@H](O)[C@@H]1O [Compound 192, (2R,3S,4R,5S,6R)-2-(2-fluoro-5-hydroxy-phenyl)-6-(hydroxymethyl)tetrahydropyran-3,4,5-triol]
- Kd: 56.5 ± 9.1 nM

SMILES: OC[C@H]1O[C@H](c2ccc(F)c(O)c2)[C@@H](O)[C@@H](O)[C@@H]1O [Compound 193, (2R,3S,4R,5S,6R)-2-(4-fluoro-3-hydroxy-phenyl)-6-(hydroxymethyl)tetrahydropyran-3,4,5-triol]
- Kd: 30.6 ± 1.1 nM

SMILES: Cc1cc(O)cc([C@H]2O[C@H](CO)[C@@H](O)[C@H](O)[C@@H]2O)c1 [Compound 194, (2R,3S,4R,5S,6R)-2-(hydroxymethyl)-6-(3-hydroxy-5-methyl-phenyl)tetrahydropyran-3,4,5-triol]
- Kd: 31 ± 29.4 nM

SMILES: CNC(=O)c1ccc(Oc2ccc(OC(F)(F)F)c([C@H]3O[C@H](CO)[C@@H](O)[C@H](O)[C@@H]3O)c2)cc1 [Compound 195, N-methyl-4-[4-(trifluoromethoxy)-3-[(2R,3S,4R,5S,6R)-3,4,5-trihydroxy-6-(hydroxymethyl)tetrahydropyran-2-yl]phenoxy]benzamide]
- Kd: 178 ± 60.9 nM

SMILES: CNC(=O)c1ccc(Oc2cc([C@H]3O[C@H](CO)[C@@H](O)[C@H](O)[C@@H]3O)ccc2F)cc1 [Compound 197, 4-[2-fluoro-5-[(2R,3S,4R,5S,6R)-3,4,5-trihydroxy-6-(hydroxymethyl)tetrahydropyran-2-yl]phenoxy]-N-methyl-benzamide]
- Kd: 11.7 ± 2.8 nM

SMILES: CNC(=O)c1ccc(Oc2cccc([C@H]3O[C@H](CO)[C@@H](O)[C@H](O)[C@@H]3O)c2F)cc1 [Compound 198, 4-[2-fluoro-3-[(2R,3S,4R,5S,6R)-3,4,5-trihydroxy-6-(hydroxymethyl)tetrahydropyran-2-yl]phenoxy]-N-methyl-benzamide]
- Kd: 10.8 ± 5.2 nM

Source: patent publication US20130261077A1 (priority 2012, published 2013)
